Values of other authors, collected in article PMC8538057, “Direct Delivery of ANA-TA9, a Peptide Capable of Aβ Hydrolysis, to the Brain by Intranasal Administration” (Pharmaceutics, 2021).

Assays:
[1] = test system: normal and cognitively impaired rats; settings: i.n. administration; cited from earlier work
Excerpt: (§1) Nasal drug administration has several advantages over oral or i.v. administration, which include noninvasiveness, self-administration, short onset of action, and higher bioavailability due to the avoidance of hepatic first-pass metabolism. Therefore, interest has grown in i.n. drug administration as a route for the application of drugs, particularly peptides, for systemic delivery. In addition to the above advantages, active pharmaceutical ingredients applied to the nasal cavity can undergo not only systemic absorption but, also, direct delivery to the brain [33, 34, 35, 36]. The brain up ...

[2] = test system: aged mice; settings: i.n. administration; cited from earlier work
Excerpt: as §1

[3] = test system: Aβ42; settings: also three Aβ fragment peptides, particularly Aβ11–29; cited from earlier work
Excerpt: Recently, we reported the proteolytic activity of the shorter synthetic peptides JAL-TA9 (YKGSGFRMI) and ANA-TA9 (SKGQAYRMI), derived from the Box A region of the Tob1 and ANA/BTG3 proteins. These peptides cleave Aβ42 and three Aβ fragment peptides, particularly Aβ11–29 originating from the central region, which is considered the core region of Aβ42 aggregation/oligomerization. We gave these peptides the general name Catalytide. Catalytides such as JAL-TA9 and ANA-TA9 are attractive candidate peptide drugs for a novel strategy for preventing and treating AD.

Row | Sequence | effect on memory function [1] | effect on anxiety [2] | cleavage of Aβ42 (proteolytic activity) [3]
1 | NAPVSIPQ | improves memory function | decreases anxiety | –
2 | YKGSGFRMI [JAL-TA9, Catalytide (catalytic peptide) … derived from the Box A region of Tob1 protein, cleaves Aβ42] | – | – | cleave Aβ42
